Assay results taken from patent publication US12570655B2, “Cysteine covalent modifiers of AKT1 and uses thereof” (Terremoto Biosciences, Inc., priority 2023, dated 2026).
Where two headings read alike, the source gives them in different places.

Experiments:
Format in all cases: cell-based
AKT1 WT = biological target: T1, AKT1 WT (Homo sapiens, UniProt P31749); test: Live cell AKT1 WT target engagement by NanoBRET competitive probe displacement; conditions: HEK293 cells transfected with kinase-NanoLuciferase fusion, 2 h at 37° C.
T1 construct: expressed in transfected cells; host or cells: HEK293
Outline: (§1)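 IC50 fitted (Hill, log inhibitor vs response) to BRET signal, E600/E460 ratio, measured with extracellular NanoLuc inhibitor present. Intact transfected HEK293 cells bearing NanoLuc-tagged kinase were co-incubated 2 h, 37 °C, with compound dilution series and ~EC50 ATP-competitive fluorescent tracer.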

[1] = test system: LAPC4 prostate cancer cells; test: Antiproliferative effects in LAPC4 cells (CellTiter Glo); conditions: LAPC4 cells (AKT1 E17K allele), read-out: LAPC4 proliferation IC50
Outline: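 Growth inhibition was measured by CellTiter Glo ATP luminescence after 72 h compound exposure of 1,000 seeded cells/well. The cells were AKT1 E17K-expressing LAPC4 prostate cancer cells maintained in IMDM plus 12% FBS. IC50 values came from Hill-equation fits.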

AKT2 = biological target: T2, AKT2 (Homo sapiens, UniProt P31751); test: Live cell AKT2 target engagement by NanoBRET competitive probe displacement; conditions: HEK293 cells transfected with kinase-NanoLuciferase fusion, 2 h at 37° C.
T2 construct: expressed in transfected cells; host or cells: HEK293
Outline: as §1

AKT1 E17K = biological target: T3, AKT1 E17K (Homo sapiens, UniProt P31749, E17K); test: Live cell AKT1 E17K target engagement by NanoBRET competitive probe displacement; conditions: HEK293 cells transfected with kinase-NanoLuciferase fusion, 2 h at 37° C.
T3 construct: expressed in transfected cells; host or cells: HEK293
Outline: as §1

T1 sequence (P31749 whole entry, the tested form may be a part): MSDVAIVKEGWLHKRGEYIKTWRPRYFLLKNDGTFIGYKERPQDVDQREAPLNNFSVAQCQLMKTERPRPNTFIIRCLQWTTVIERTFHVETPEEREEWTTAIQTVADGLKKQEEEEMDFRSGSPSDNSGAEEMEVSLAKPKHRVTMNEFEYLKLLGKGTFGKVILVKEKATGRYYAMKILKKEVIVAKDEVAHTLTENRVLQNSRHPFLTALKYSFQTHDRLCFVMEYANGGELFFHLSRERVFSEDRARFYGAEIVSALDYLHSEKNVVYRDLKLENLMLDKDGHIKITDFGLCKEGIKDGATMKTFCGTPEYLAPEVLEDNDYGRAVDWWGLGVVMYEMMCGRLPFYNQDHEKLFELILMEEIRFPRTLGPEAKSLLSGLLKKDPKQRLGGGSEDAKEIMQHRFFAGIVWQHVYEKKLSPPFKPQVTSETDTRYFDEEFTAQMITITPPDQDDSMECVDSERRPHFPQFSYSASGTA
T3 sequence (P31749 whole entry E17K, the tested form may be a part): as the sequence (P31749 whole entry, the tested form may be a part) above, with E17K counted along it
T2 sequence (P31751 whole entry, the tested form may be a part): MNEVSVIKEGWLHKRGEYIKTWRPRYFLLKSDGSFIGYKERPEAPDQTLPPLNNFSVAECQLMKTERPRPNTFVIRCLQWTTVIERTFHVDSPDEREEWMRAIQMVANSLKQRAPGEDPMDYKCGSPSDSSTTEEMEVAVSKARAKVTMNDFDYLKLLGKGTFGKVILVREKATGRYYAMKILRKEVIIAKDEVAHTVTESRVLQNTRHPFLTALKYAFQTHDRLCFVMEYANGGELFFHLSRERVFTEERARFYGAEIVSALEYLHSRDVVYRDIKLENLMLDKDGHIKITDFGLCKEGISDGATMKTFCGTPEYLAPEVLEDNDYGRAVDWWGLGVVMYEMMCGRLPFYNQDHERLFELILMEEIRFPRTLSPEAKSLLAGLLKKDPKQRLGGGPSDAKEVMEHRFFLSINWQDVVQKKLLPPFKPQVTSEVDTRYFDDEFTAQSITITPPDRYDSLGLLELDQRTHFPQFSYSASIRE

Compound	IC50 (AKT1 WT) [nM]	IC50 ([1]; 72 h) [nM]	IC50 (AKT2) [nM]	IC50 (AKT1 E17K) [nM]	IC50 ([1]; Homo sapiens, LAPC4, 72 h) [nM]
C=CC(=O)N1CCN(NC2CCc3cc(-n4c(-c5cccnc5N)nc5ccc(-n6cccn6)nc54)ccc32)CC1 (single isomer, unassigned) [Example 148, (*)-1-(4-((5-(2-(2-aminopyridin-3-yl)-5-(1H-pyrazol-1-yl)-3H-imidazo[4,5-b]pyridin-3-yl)-2,3-dihydro-1H-inden-1-yl)amino)piperazin-1-yl)prop-2-en-1-one]	12.5	93.3	61	38	–
C=CC(=O)N1CCC(NC2c3ccc(-n4c(-c5cccnc5N)nc5ccc(-n6cccn6)nc54)cc3CC2O)CC1 (single isomer, unassigned) [Example 150, 1-(4-(((1*,2*)-5-(2-(2-aminopyridin-3-yl)-5-(1H-pyrazol-1-yl)-3H-imidazo[4,5-b]pyridin-3-yl)-2-hydroxy-2,3-dihydro-1H-inden-1-yl)amino)piperidin-1-yl)prop-2-en-1-one]	31.1	478	781	213	–
C=CC(=O)N1CCC(NC2c3ccc(-n4c(-c5cccnc5N)nc5ccc(-n6cccn6)nc54)cc3CC2O)CC1 (single isomer, unassigned) [Example 151, 1-(4-(((1*,2*)-5-(2-(2-aminopyridin-3-yl)-5-(1H-pyrazol-1-yl)-3H-imidazo[4,5-b]pyridin-3-yl)-2-hydroxy-2,3-dihydro-1H-inden-1-yl)amino)piperidin-1-yl)prop-2-en-1-one]	> 1000	> 10000	> 10000	> 1000	–
C=CC(=O)N1CCC(N[C@H]2CCc3cc(-n4c(-c5cccnc5N)nc5ccc(-n6cccn6)nc54)ccc32)C(C#N)C1 (single isomer, unassigned) [Example 155, (3*,4*)-1-acryloyl-4-(((S)-5-(2-(2-aminopyridin-3-yl)-5-(1H-pyrazol-1-yl)-3H-imidazo[4,5-b]pyridin-3-yl)-2,3-dihydro-1H-inden-1-yl)amino)piperidine-3-carbonitrile]	83.6	490	1230	> 1000	–
C=CC(=O)N1CCC(N[C@H]2CCc3cc(-n4c(-c5cccnc5N)nc5ccc(-n6cccn6)nc54)ccc32)C(C#N)C1 (single isomer, unassigned) [Example 156, (3*,4*)-1-acryloyl-4-(((S)-5-(2-(2-aminopyridin-3-yl)-5-(1H-pyrazol-1-yl)-3H-imidazo[4,5-b]pyridin-3-yl)-2,3-dihydro-1H-inden-1-yl)amino)piperidine-3-carbonitrile]	9.8	30.2	64.7	11.3	–
C=CC(=O)N1CCC(N[C@@H]2c3ccc(-n4c(-c5cccnc5N)nc5ccc(-n6cccn6)nc54)cc3CC2OC)CC1 (single isomer, unassigned) [Example 162, 1-(4-(((1R,2*)-5-(2-(2-aminopyridin-3-yl)-5-(1H-pyrazol-1-yl)-3H-imidazo[4,5-b]pyridin-3-yl)-2-methoxy-2,3-dihydro-1H-inden-1-yl)amino)piperidin-1-yl)prop-2-en-1-one]	102	–	5880	645	1600
C=CC(=O)N1CCC(N[C@@H]2c3ccc(-n4c(-c5cccnc5N)nc5ccc(-n6cccn6)nc54)cc3CC2OC)CC1 (single isomer, unassigned) [Example 163, 1-(4-(((1R,2*)-5-(2-(2-aminopyridin-3-yl)-5-(1H-pyrazol-1-yl)-3H-imidazo[4,5-b]pyridin-3-yl)-2-methoxy-2,3-dihydro-1H-inden-1-yl)amino)piperidin-1-yl)prop-2-en-1-one]	71.7	879	1910	642	–
